We go through 2 molecules from patent publication EP4748837A1, “AROMATIC AMIDE DERIVATIVE, AND PREPARATION METHOD THEREFOR AND USE THEREOF” (Zhejiang Hisun Pharmaceutical Co., Ltd., priority 2023, dated 2025).

Series [1] concerns OVCAR-3 cells. The series is described as follows: Inhibition of OVCAR-3 cell proliferation (CellTiter-Glo cell viability). The class given is cell-based. As to conditions: Homo sapiens; OVCAR-3 cells (TP53 R248Q mutation), 72 hours culture with compound; read-out: IC50. Put shortly:
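OVCAR-3 cells (TP53 R248Q) in RPMI 1640 with 10% FBS were seeded at 1000 cells/well, grown overnight, then exposed to compound (final 1000 nM–0.015 nM) for 72 h at 37°C, 5% CO2. Viability was read by CellTiter-Glo luminescence. IC50 came from nonlinear regression of inhibition relative to 0.3% DMSO control.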
In general terms: In ATP-based viability assays light output follows the ATP content of the culture.

Series [2] is described as follows: Pharmacokinetic testing in mice after intragastric administration. The series is classed as in vivo. As to conditions: ICR mice; for area under the curve (in words) / pharmacokinetic properties (in words) / plasma concentration (in words): oral 10 mg/kg, conclusion; for AUC(0-inf) / half-life / Cmax: male, mouse, oral administration 10 mg/kg, plasma; for AUC(0-inf): read-out: Area under the curve AUC0-∞; for half-life: read-out: Half-life period T1/2 (converted); for Cmax: read-out: Plasma concentration Cmax. As to the method: ICR mice were taken as test animals, and intragastrically administered with a control compound AMG650 and compounds 47 and 53 of the present invention, and then drug concentrations in plasma at different moments were determined by an LC/MS/MS method, so as to study pharmacokinetic characteristics of the compounds of the present invention in the mice.
Control compound AMG650, and Compounds 47 and 53.
ICR mice, male, 20-22 g, purchased from Vital River Laboratory Animal Technology Co., Ltd.
A proper amount of to-be-tested compound was weighed, proper amounts of DMA, 30% HS-15 and Saline were added in sequence, and the mixture was well mixed by ultrasonic vortex to prepare 1 mg/mL drug preparations respectively, wherein […]: 30% HS-15: Saline=5: 5: 90 (v: v: v).
ICR mice in each to-be-tested compound injection group (9 mice in each group) were fasted overnight and then intragastrically administered with the compound (PO, an administration dosage of the compound was 10 mg/kg and an administration volume of the compound was 10 mL/kg), and were fed 4 hours after administration.
0.25 hours, 0.5 hours, 1 hour, 2 hours, 4 hours, 6 hours, 8 hours and 24 hours before and after administration, about […] of blood was collected through an orbit, and a complete blood sample was placed in an EDTA-K2-containing anticoagulation tube. The collected blood samples were placed on ice, and plasma was centrifugally separated (centrifugation conditions: 1500 g, 10 minutes). The collected plasma was stored at -40°C - -20°C before analysis.
A content of the to-be-tested compound in the plasma of the mice after intragastric administration was determined by LC-MS/MS.

Broadly, the IC50 is the concentration that gives 50% inhibition. Take `CCS(=O)(=O)Nc1ccc(C(=O)Nc2ccc(-c3ncn(C)n3)c(OCC(F)(F)F)c2)c(N2CCC3(CC2)CC3)c1` [Example 47, 4-(ethylsulfonamido)-N-(4-(1-methyl-1H-1,2,4-triazol-3-yl)-3-(2,2,2-trifluoroethoxy)pheny 1)-2-(6-azaspiro[2.5]octan-6-yl)benzamide]: in series [1], the half-inhibitory concentration (IC50) is 5.8 nM. Moreover, in series [2], the “area under the curve (in words)” value is listed as “large area under the curve”, the “pharmacokinetic properties (in words)” value is reported as “good pharmacokinetic properties”, the “plasma concentration (in words)” value is “high plasma concentration” and the AUC(0-inf) worked out at 44100 ng·h/mL. In addition, in series [2], the half-life is 5.45 h and the Cmax was 3500 ng/mL.
With `CCS(=O)(=O)Nc1ccc(C(=O)Nc2ccc(-c3ncccn3)c(OCC(F)(F)F)c2)c(N2CCC3(CC2)CC3)c1` [Example 53, 4-(ethylsulfonamido)-N-(4-(pyrimidin-2-yl)-3-(2,2,2-trifluoroethoxy)phenyl)-2-(6-azaspiro[2.5]octan-6-yl)benzamide], the IC50 in series [1] stood at 9.5 nM. For the same molecule, in series [2], the “area under the curve (in words)” value is “large area under the curve”, the “pharmacokinetic properties (in words)” value is given as “good pharmacokinetic properties”, the “plasma concentration (in words)” value is recorded as “high plasma concentration” and the AUC(0-inf) worked out at 83700 ng·h/mL. Moreover, in series [2], the half-life was 12.1 h and the Cmax was determined as 5790 ng/mL.
